This is an account of results in PubChem BioAssay (NCI).

Holding throughout (assay): NCI-60 cell line screen, 48 h
Experiment [1] has as its system SW-620 colon.
For experiment [2], the system named is NCI-H460 lung.
For experiment [3], the system named is NCI/ADR-RES ovarian.
Experiment [4] deals with RXF 393 renal.
The test system of experiment [5] is SK-MEL-5 melanoma.
For experiment [6], the system named is HCT-15 colon.
Experiment [7] concerns U251 CNS.
The test system of experiment [8] is OVCAR-5 ovarian.
Experiment [9] concerns T-47D breast.
For experiment [10], the system named is PC-3 prostate.

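Grown in 96-well plates, cells were treated for 48 hours with each compound at five concentrations. Insufficient inhibition: endpoint recorded as highest concentration tested. Here, GI50 denotes the concentration required for 50% inhibition of growth. TGI denotes the concentration required for complete inhibition of growth.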 Bounds are passed on as bounds.

For the compound `O=C(CCl)N1c2ccccc2Sc2ccc3ccccc3c21`, the GI50 in experiment [1] is 1.27 µM; in [2] it was 1.89 µM; in [3] it was 2.18 µM; in experiment [4], 1.49 µM; in experiment [5] it was 1.6 µM; in [6] it was 1.09 µM. The GI50 in experiment [7] is 1.55 µM; in [8], 1.48 µM; in experiment [9], 1.66 µM; in experiment [10] it was 1.47 µM. Moreover, the TGI in [1] came out at 2.89 µM; in [2], 3.82 µM; in [3], 5.26 µM; in experiment [4], 2.83 µM; in experiment [5], 2.96 µM; in experiment [6], 2.53 µM. The TGI in experiment [7] was 2.95 µM; in [8], 3.03 µM; in experiment [9], 3.69 µM; in experiment [10], 3.06 µM.
Regarding `Cc1ccc(SC2=CC(=O)c3nc4ccccc4c4ccnc2c34)cc1`, the GI50 in experiment [1] was 23.1 µM; in experiment [2], 61.4 µM; in experiment [3], 27.9 µM; in [4], 21.9 µM; in [5] it was 29.1 µM; in experiment [6], 18.4 µM. Moreover, the GI50 in experiment [7] was 30.2 µM; in [8] it was above 79.9 µM; in experiment [9] it was 24.3 µM; in [10], 22 µM. In addition, the TGI was 47.9 µM in experiment [1]; above 100 µM in experiment [2]; above 95.4 µM in [3]; 50 µM in [4]; above 66.8 µM in experiment [5]; 40.6 µM in experiment [6]. The TGI was above 100 µM in experiment [7], above 100 µM in experiment [8], 47.2 µM in [9] and 71.2 µM in experiment [10].
As to `O=C(O)c1cc2cc(OCc3ccccc3)c(OCc3ccccc3)cc2[nH]1`, the GI50 in [1] was 21.8 µM; in experiment [2], 17.8 µM; in experiment [3], 20.2 µM; in [4], 14.6 µM; in experiment [5], 20.1 µM; in [6], 16.3 µM. For the same compound, the GI50 was 17.7 µM in experiment [7], 29.1 µM in [8], 23.9 µM in [9] and 23 µM in [10]. Further, the TGI in experiment [1] amounted to 53.8 µM; in experiment [2], 33.4 µM; in experiment [3], 49.1 µM; in experiment [4] it was 30.4 µM; in experiment [5], 47.3 µM; in [6], 36.4 µM. Also, the TGI in experiment [7] is 37 µM; in [8] it was 87.9 µM; in experiment [9] it was above 100 µM; in [10], 68.5 µM.
With `O=C(O)c1ccc(N/C=C2\C(=O)c3ccccc3OC2O)cc1O` (stereo not given), the GI50 was 20.3 µg/mL in [1]; 32.3 µg/mL in [2]; 22.3 µg/mL in experiment [3]; 12.6 µg/mL in [4]; 17.6 µg/mL in experiment [5]; 6.17 µg/mL in experiment [6]. The GI50 in [7] was 17.2 µg/mL; in [8] it was 31.2 µg/mL; in experiment [9], 6.18 µg/mL; in experiment [10], 31.6 µg/mL. Besides, the TGI in experiment [1] stood at 48.3 µg/mL; in [2], 78.3 µg/mL; in experiment [3], 78.6 µg/mL; in [4], 34.5 µg/mL; in [5], 37.6 µg/mL; in experiment [6], 26.6 µg/mL. Moreover, the TGI in [7] came out at 45.1 µg/mL; in experiment [8], 78.5 µg/mL; in experiment [9], 50.3 µg/mL; in experiment [10], 107 µg/mL.
Regarding `COC(=O)[C@]12CC[C@@H](C)[C@H](C)[C@@H]1C1=CC[C@@H]3[C@@]4(C)C=C(O)C(=O)[C@@]5(C)COC(=C54)C[C@@]3(C)[C@]1(C)CC2`, the GI50 in experiment [1] was 11.3 µM; in experiment [2] it was 12.4 µM; in experiment [3], 14.3 µM; in experiment [4], 7.09 µM; in experiment [5], 4.25 µM; in [6], 11.6 µM. The GI50 was 12.6 µM in [7], 20.9 µM in [8], 3.66 µM in [9] and 4.77 µM in [10]. Further, the TGI amounted to 26.3 µM in [1]; 28.9 µM in experiment [2]; 45.6 µM in experiment [3]; 24.9 µM in experiment [4]; 15.3 µM in experiment [5]; 26.6 µM in experiment [6]. Further, the TGI in [7] amounted to 30.7 µM; in [8] it was 49.6 µM; in experiment [9] it was 20.7 µM; in experiment [10] it was 18.5 µM.
As to `COc1ccc(Cl)cc1NC(=O)C(Br)C(Br)C(=O)O` (stereo not given), the GI50 is 5 µM in experiment [1]; 38 µM in experiment [2]; 3.03 µM in experiment [3]; 18.8 µM in experiment [4]; 2.39 µM in [5]; 10.2 µM in experiment [6]. The GI50 in experiment [7] is 6.62 µM; in experiment [8] it was 27.9 µM; in [9], 3.27 µM; in experiment [10], 13.4 µM. Further, the TGI in experiment [1] was above 51.5 µM; in experiment [2], above 100 µM; in [3], 9.26 µM; in experiment [4] it was 40.9 µM; in experiment [5], 7.1 µM; in experiment [6] it was 32.2 µM. For the same compound, the TGI in experiment [7] was 20.9 µM; in [8] it was 57 µM; in experiment [9], 14.3 µM; in [10] it was above 100 µM.
In the case of `CO[C@@H]1/C=C(C)/C=C/[C@@H](C)/C=C(\C)C(=O)OC(/C(C)=C/C=C(\C)CNC(=O)[C@H](CO)NC=O)[C@@H](C)/C=C/C=C/[C@H](OC)CC/C=C(C)/C=C/C1` (stereo not given in full), the GI50 was below 0.005 µM in experiment [1]; below 0.005 µM in [2]; 0.0587 µM in experiment [3]; 0.285 µM in [4]; below 0.005 µM in [5]; 0.0225 µM in [6]. Besides, the GI50 is below 0.005 µM in experiment [7], 0.178 µM in experiment [8], 0.0243 µM in experiment [9] and below 0.005 µM in [10]. Moreover, the TGI was 13.6 µM in experiment [1]; 5.81 µM in experiment [2]; 15.4 µM in experiment [3]; 0.808 µM in experiment [4]; below 0.005 µM in experiment [5]; 6.88 µM in experiment [6]. Further, the TGI in experiment [7] is 0.214 µM; in experiment [8], 12.5 µM; in [9], 16.8 µM; in [10], 6.91 µM.
